Where a name gives a salt, the structure may show the parent alone. Read-outs that look alike come from different tables or passages of the source.
Key:
MOLM14 cells = assay: Proliferation assay (spheroid growth, 8 days), MOLM14; format: cell-based, human; settings: MOLM14, 8 days, read-out: spheroid assay_OneTime MOLM14 IC50;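 further: spheroid size read as confluence by live-cell imaging, compounds added at a range of concentrations with 0.3% DMSO, DMSO-treated wells = 0%, highest reference dose = low control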
hERG potassium channel = hERG potassium channel (Homo sapiens (Human), UniProt Q12809); assay: Effect on membrane potassium current IKr in hERG transfected CHO cells, Protocol 1 (QPatch); format: cell-based
Chain of hERG potassium channel (Q12809 whole entry): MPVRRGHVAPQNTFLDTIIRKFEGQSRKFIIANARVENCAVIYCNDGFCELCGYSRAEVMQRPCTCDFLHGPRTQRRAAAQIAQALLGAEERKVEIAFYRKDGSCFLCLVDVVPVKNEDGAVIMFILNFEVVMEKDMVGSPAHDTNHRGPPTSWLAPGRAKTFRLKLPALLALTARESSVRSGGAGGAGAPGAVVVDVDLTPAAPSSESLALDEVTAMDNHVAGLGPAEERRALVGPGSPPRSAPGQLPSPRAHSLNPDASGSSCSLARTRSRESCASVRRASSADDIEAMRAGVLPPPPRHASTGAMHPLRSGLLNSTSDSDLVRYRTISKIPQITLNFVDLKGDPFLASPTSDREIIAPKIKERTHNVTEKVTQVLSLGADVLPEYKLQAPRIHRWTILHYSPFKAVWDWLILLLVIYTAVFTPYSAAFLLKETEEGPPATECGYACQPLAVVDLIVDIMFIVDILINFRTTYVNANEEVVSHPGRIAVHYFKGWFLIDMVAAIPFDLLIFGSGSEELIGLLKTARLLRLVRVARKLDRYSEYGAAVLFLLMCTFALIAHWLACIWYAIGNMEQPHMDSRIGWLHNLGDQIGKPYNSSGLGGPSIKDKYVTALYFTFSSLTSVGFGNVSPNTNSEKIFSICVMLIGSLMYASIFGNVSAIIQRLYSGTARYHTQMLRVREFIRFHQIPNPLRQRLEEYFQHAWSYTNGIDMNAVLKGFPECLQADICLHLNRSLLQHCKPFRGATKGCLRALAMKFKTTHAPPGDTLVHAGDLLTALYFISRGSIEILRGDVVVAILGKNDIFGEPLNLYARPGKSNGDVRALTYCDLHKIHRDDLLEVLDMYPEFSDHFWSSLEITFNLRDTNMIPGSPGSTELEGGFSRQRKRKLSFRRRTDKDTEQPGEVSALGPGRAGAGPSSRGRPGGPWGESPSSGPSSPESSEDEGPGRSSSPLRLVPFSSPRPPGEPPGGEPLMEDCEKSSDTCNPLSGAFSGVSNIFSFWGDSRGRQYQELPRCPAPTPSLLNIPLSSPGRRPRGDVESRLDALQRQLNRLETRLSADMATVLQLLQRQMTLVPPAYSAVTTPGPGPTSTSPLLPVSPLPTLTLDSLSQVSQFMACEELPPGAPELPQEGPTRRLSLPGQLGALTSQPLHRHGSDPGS
Method: 8) Effect on the Membrane Potassium Current IKr in hERG Transfected Cell Lines
• CHO Chinese hamster ovary cell line • DMSO Dimethylsulfoxide • hERG human ether-á-go-go-related gene • IKr rapidly activating delayed-rectifier K^+ current Methods
Experiments were performed using CHO cells stably expressing the hERG potassium channel. Cells were grown at 37° C. and 5% CO2 in culture flasks in Ham's F12 Medium supplemented with 10% heat-inactivated fetal calf serum, hygromycin B (100 μg/ml) and geneticin (100 μg/ml). For use in the automated patch-clamp system QPatch (Sophion) cells were harvested to obtain cell suspension of single cells.
Solutions: The bath solution contained (in mM) 145 NaCl, 4 KCl, 10 glucose, 10 HEPES ((4-(2-hydroxyethyl)-1-piperazineethanesulfonic acid), 2 CaCl2 and 1 MgCl2 (pH 7.4 with NaOH). The pipette solution contained (in mM) 120 KCl, 10 EGTA (Ethylene glycol-bis(2-aminoethylether)-N,N,N′,N′-tetraacetic acid), 10 HEPES, 5.374 CaCl2 and 1.75 MgCl2 (pH 7.2 with KOH).
Patch-clamp experiments were performed in the voltage-clamp mode and whole-cell currents were recorded with an automated patch-clamp assay utilizing the QPatch system (Sophion). Current signals were amplified and digitized, stored and analyzed by using the QPatch assay software.
The holding potential was −80 mV. The hERG current (K^+-selective outward current) was determined as the maximal tail current at −40 mV after a 2 second depolarization to +60 mV. Pulse cycling rate was 15 s. A short pulse (90 ms) to −40 mV served as a baseline step to calculate the tail current amplitude. After establishing whole-cell configuration and a stability period, the solvent control (0.3% DMSO) was applied for 5 minutes followed by the test substance by four increasing concentrations of 3×10^−7 M, 3×10^−6 M, 10^−5 M and 3×10^−5 M. Each concentration of the test substance was applied twice. The effect of each concentration was determined after 5 min as an average current of 3 sequential voltage pulses. To determine the extent of block the residual current was compared with vehicle pre-treatment.
Concentration/response relations were calculated by non-linear least-squares fits to the individual data points. The half-maximal inhibiting concentration (IC50) was calculated by the fitting routine.

OCI-AML3 cells = assay: Proliferation assay (spheroid growth, 8 days), OCI-AML3; format: cell-based, human
In short: (§1)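 Spheroid size on day 8, taken as live-cell imaging confluence, served as readout after 8-day compound exposure (0.3% DMSO, 37 °C, 5% CO2) in round-bottom low-attachment wells. Seeding was 200 cells for MOLM14 and OCI-AML3, 300 for KO-52. IC50 came from % effect versus DMSO and reference baseline, fitted with variable slope.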

MEIS1 mRNA = MEIS1 mRNA expression assay (Quantigene Singleplex) in MOLM14 cells; format: cell-based, human;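 further: MEIS1 transcript levels read by probe hybridization and normalized to RPL28 mRNA, with IC50 fitted to fold changes across a rising compound concentration series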
[1] = target: menin/MLL (terbium chelate-labeled menin, FITC-MBM1 peptide) (Homo sapiens (Human), UniProt O00255); assay: Menin/MLL homogenous time-resolved fluorescence (HTRF) assay; format: binding;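 further: IC50 from percent inhibition of HTRF signal, normalized between wells without competitor and wells with a saturating competitor that displaces FITC-MBM1 from His-tagged menin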
Chain of menin/MLL (terbium chelate-labeled menin, FITC-MBM1 peptide) (O00255 other isoform, or with tags, fused parts or gaps): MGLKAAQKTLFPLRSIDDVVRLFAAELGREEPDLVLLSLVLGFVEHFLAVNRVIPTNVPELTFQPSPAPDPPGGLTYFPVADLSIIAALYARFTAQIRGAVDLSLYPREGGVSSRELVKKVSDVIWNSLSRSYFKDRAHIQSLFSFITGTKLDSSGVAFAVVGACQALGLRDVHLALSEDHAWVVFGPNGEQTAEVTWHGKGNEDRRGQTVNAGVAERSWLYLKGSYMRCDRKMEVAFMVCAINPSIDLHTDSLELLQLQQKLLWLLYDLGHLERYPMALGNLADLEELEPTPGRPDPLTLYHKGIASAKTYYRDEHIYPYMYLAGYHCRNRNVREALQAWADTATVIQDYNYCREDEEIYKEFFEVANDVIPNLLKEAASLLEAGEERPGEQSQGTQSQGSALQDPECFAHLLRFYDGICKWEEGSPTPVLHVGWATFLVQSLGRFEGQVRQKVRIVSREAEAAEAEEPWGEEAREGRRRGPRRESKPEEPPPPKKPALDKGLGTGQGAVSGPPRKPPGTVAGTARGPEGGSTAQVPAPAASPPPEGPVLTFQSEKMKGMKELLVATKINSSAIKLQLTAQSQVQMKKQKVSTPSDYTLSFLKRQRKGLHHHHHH

KO-52 cells = assay: Proliferation assay (spheroid growth, 8 days), KO-52 control cell line; format: cell-based, human; settings: read-out: spheroid assay_OneTime KO-52 IC50
In short: as §1

[2] = Homo sapiens, OCI-AML-3, […], OCI-AML3, 8 days
[3] = Homo sapiens, MOLM-14, 48 h, 48 hours incubation
[4] = HTRF-30 min incubation IC50, 30 min incubation
[5] = Homo sapiens, OCI-AML-3, OCI-AML3, 8 days
[6] = Homo sapiens, MOLM-14, 48 hours incubation

| SMILES | IC50 (MOLM14 cells; Homo sapiens, MOLM-14, […]) | IC50 (hERG potassium channel) | IC50 (OCI-AML3 cells; [2]) | IC50 (MEIS1 mRNA; [3]) | IC50 [1, 4] | IC50 (KO-52 cells; Homo sapiens, […]) | IC50 (MOLM14 cells) | IC50 (OCI-AML3 cells; OCI-AML3, 8 days) | IC50 (MEIS1 mRNA; 48 hours incubation) | IC50 ([1]; read-out: HTRF-30 min incubation IC50, 30 min incubation) | IC50 (KO-52 cells) | IC50 (MOLM14 cells; Homo sapiens, MOLM-14) | IC50 (OCI-AML3 cells; [5]) | IC50 (MEIS1 mRNA; [6]) | IC50 (KO-52 cells; Homo sapiens) |
| --- | --- | --- | --- | --- | --- | --- | --- | --- | --- | --- | --- | --- | --- | --- | --- |
| CCN(C(=O)c1cc(F)ccc1Oc1nncnc1N1CCC2(C1)CN([C@H](CCC(C)(C)N(C)C)C(C)C)C2)C(C)C (single isomer, unassigned) [Compound 32, (*R)-2-((5(2-(6-(dimethylamino)-2,6-dimethylheptan-3-yl)-2,6-diazaspiro[3.4]octan-6-yl)-1,2,4-triazin-6-yl)oxy)-N-ethyl-5-fluoro-N-isopropylbenzamide] | 58 nM | > 30200 nM | 280 nM | 88 nM | 0.1 nM | 12900 nM |  |  |  |  |  |  |  |  |  |
| CCN(C(=O)c1cc(F)ccc1Oc1nncnc1N1CCC2(C1)CN([C@H](CCC(C)(C)NC(C)=O)C(C)C)C2)C(C)C (single isomer, unassigned) [Compound 34] | 3840 nM | > 30200 nM | 3440 nM | > 1000 nM | 0.87 nM | > 15000 nM |  |  |  |  |  |  |  |  |  |
| CCN(C(=O)c1cc(F)ccc1Oc1nncnc1N1CCC2(C1)CN([C@H](CCC(C)(C)NC)C(C)C)C2)C(C)C (single isomer, unassigned) [Compound 35, (*R)-2-((5-(2-(2,6-dimethyl-6-(methylamino)heptan-3-yl)-2,6-diazaspiro[3.4]octan-6-yl)-1,2,4-triazin-6-yl)oxy)-N-ethyl-5-fluoro-N-isopropylbenzamide hydrochloride] | 200 nM | > 30200 nM | 490 nM | 120 nM | 0.15 nM | > 15000 nM |  |  |  |  |  |  |  |  |  |
| CC(C)[C@@H](CCCN(C)C)N1CC2(CCN(c3ccnnc3Oc3ccc(F)cc3C(=O)N(C(C)C)C(C)C)C2)C1 (single isomer, unassigned) [Compound 75, (*R)-2-((4-(2-(6-(dimethylamino)-2-methylhexan-3-yl)-2,6-diazaspiro[3.4]octan-6-yl)pyridazin-3-yl)oxy)-5-fluoro-N,N-diisopropylbenzamide] |  | > 30200 nM |  |  |  |  | 53 nM | 410 nM | 140 nM | 0.21 nM | > 15000 nM |  |  |  |  |
| COCCN(C)CCC[C@H](C(C)C)N1CC2(CCN(c3ncnnc3Oc3ccc(F)cc3C(=O)N(C(C)C)C(C)C)C2)C1 (single isomer, unassigned) [Compound 94, (*R)-5-fluoro-N,N-isopropyl-2-((5-(2-(6-((2-methoxyethyl)(methyl)amino)-methylhexan-3-yl)-2,6-diazaspiro[3.4]octan-6-yl)-1,2,4-triazin-6-yl)oxy)benzamide oxalate] | 10 nM | 30900 nM | 96 nM | 8.2 nM | 0.12 nM | 4750 nM |  |  |  |  |  |  |  |  |  |
| CCN(C(=O)c1cc(F)ccc1Oc1nncnc1N1CCC2(C1)CN([C@H](CCCN(C)C)C(C)C)C2)C(C)C [Compound 4, (R)-2-((5-(2-(6-(dimethylamino)-2-methylhexan-3-yl)-2,6-diazaspiro[3.4]octan-6-yl)-1,2,4-triazin-6-yl)oxy)-N-ethyl-5-fluoro-N-isopropylbenzamide] | 30 nM | > 30200 nM | 390 nM | 20 nM | 0.095 nM | > 15000 nM |  |  |  |  |  |  |  |  |  |
| CCN(C(=O)c1cc(F)ccc1Oc1nncnc1N1CCC2(C1)CN([C@H](CCCNC(=O)OC)C(C)C)C2)C(C)C [Compound 10, methyl (R)-(4-(6-(6-(2-(ethyl(isopropyl)carbamoyl)-4-fluorophenoxy)-1,2,4-triazin-5-yl)-2,6-diazaspiro[3.4]octan-2-yl)-5-methylhexyl)carbamate] |  | > 30200 nM |  |  | 0.18 nM |  |  |  |  |  |  | 340 nM | 1680 nM | 410 nM | > 15000 nM |
| CCN(C(=O)c1cc(F)ccc1Oc1nncnc1N1CCC2(C1)CN([C@H](CCCNCCC#N)C(C)C)C2)C(C)C [Compound 12, (R)-2-((5(2-(6-((2-cyanoethyl)amino)-2-methylhexan-3-yl)-2,6-diazaspiro[3.4]octan-6-yl)-1,2,4-triazin-6-yl)oxy)-N-ethyl-5-fluoro-N-isopropylbenzamide] |  | > 30200 nM |  |  | 0.12 nM |  |  |  |  |  |  | 36 nM | 630 nM | 39 nM | 8240 nM |
| CCN(C(=O)c1cc(F)ccc1Oc1nncnc1N1CCC2(C1)CN([C@H](CCCNCCC(F)(F)F)C(C)C)C2)C(C)C [Compound 14, (R)-N-ethyl-5-fluoro-N-isopropyl-2-((5-(2-(2-methyl-6-((3,3,3-trifluoropropyl)amino)hexan-3-yl)-2,6-diazaspiro[3.4]octan-6-yl)-1,2,4-triazin-6-yl)oxy)benzamide] | 10 nM | 20000 nM | 69 nM | 8.5 nM | 0.05 nM | 3100 nM |  |  |  |  |  |  |  |  |  |
| CCN(C(=O)c1cc(F)ccc1Oc1nncnc1N1CCC2(C1)CN([C@H](CCCNCC(F)(F)F)C(C)C)C2)C(C)C [Compound 17, (R)-N-ethyl-5-fluoro-N-isopropyl-2-((5-(2-(2-methyl-6-((2,2,2-trifluoroethyl)amino)hexan-3-yl)-2,6-diazaspiro[3.4]octan-6-yl)-1,2,4-triazin-6-yl)oxy)benzamide] | 300 nM | 4100 nM | 1440 nM | 240 nM | 0.61 nM | 6790 nM |  |  |  |  |  |  |  |  |  |
| CCN(C(=O)c1cc(F)ccc1Oc1nncnc1N1CCC2(C1)CN(C(CCCNCCS(C)(=O)=O)C(C)C)C2)C(C)C (stereo not drawn) [Compound 18, N-ethyl-5-fluoro-N-isopropyl-2-((5-(2-(2-methyl-6-((2-(methylsulfonyl)ethyl)amino)hexan-3-yl)-2,6-diazaspiro[3.4]octan-6-yl)-1,2,4-triazin-6-yl)oxy)benzamide] | 120 nM | > 30200 nM | 660 nM | 150 nM | 0.3 nM | > 15000 nM |  |  |  |  |  |  |  |  |  |
| CCN(C(=O)c1cc(F)ccc1Oc1nncnc1N1CCC2(C1)CN([C@H](CCCN(C)CC(=O)N(C)C)C(C)C)C2)C(C)C [Compound 23] | 170 nM | > 30200 nM | 810 nM | 150 nM | 0.22 nM | 13800 nM |  |  |  |  |  |  |  |  |  |
| CCN(C(=O)c1cc(F)ccc1Oc1nncnc1N1CCC2(C1)CN([C@H](CCCNC(=O)OC(C)OC(=O)C(C)C)C(C)C)C2)C(C)C (stereo partly drawn) [Compound 39, 1-((((R)-4-(6-(6-(2-(ethyl(isopropyl)carbamoyl)-4-fluorophenoxy)-1,2,4-triazin-5-yl)-2,6-diazaspiro[3.4]octan-2-yl)-5-methylhexyl)carbamoyl)oxy)ethyl isobutyrate] | 27 nM | 7600 nM | 140 nM | 44 nM | 0.26 nM | > 15000 nM |  |  |  |  |  |  |  |  |  |
| CCN(C(=O)c1cc(F)ccc1Oc1nncnc1N1CCC2(C1)CN([C@H](CCCN(C)C(=O)OC(C)OC(=O)C(C)C)C(C)C)C2)C(C)C (stereo partly drawn) [Compound 40, 1-((((R)-4-(6-(6-(2-(ethyl(isopropyl)carbamoyl)-4-fluorophenoxy)-1,2,4-triazin-5-yl)-2,6-diazaspiro[3.4]octan-2-yl)-5-methylhexyl)(methyl)carbamoyl)oxy)ethyl isobutyrate] | 19 nM | 5000 nM | 74 nM | 19 nM | 0.4 nM | 9540 nM |  |  |  |  |  |  |  |  |  |

Reference: patent US12473295B2, “Substituted straight chain spiro derivatives” (Janssen Pharmaceutica NV, priority 2019, dated 2025)
